From patent US11702428B2, “Chemical compounds as inhibitors of interleukin-1 activity” (Genentech, Inc., priority 2017, dated 2023) come the findings set out here.

Where two headings read alike, the source gives them in different places.

Data set [1] concerns LPS and nigericin stimulated cells. Briefly: cells. The class given is cell-based. To be noted: Homo sapiens, read-out: CTG protective IC50. As to the method: Viability of compound treated cells is measured using CellTiter-Glo® assay (Promega, Madison, Wis.) that measures the ATP content of cells which is proportional to the number of live cells within a well. This is a counter-screen to establish that the reduction of IL-1β levels in LPS and nigericin stimulated and compound treated cells is not due to cytotoxicity, but rather through the inhibition of the inflammasome pathway. Compounds inhibiting NRLP3 inflammasome activation ultimately increase the viability of LPS and nigericin stimulated cells by blocking NLRP3 mediated pyroptosis that would otherwise lead to cell lysis.

The nature of data set [2]: Human microsomal stability (Eh). Format: in vitro ADME. To be noted: hepatic extraction ratio; 0.5 mg/mL microsomal protein, 1 μM, NADPH; liver blood flow 20.7 mL/min/kg. How it is done:
The stock solutions of test article and positive control were prepared at a concentration of 10 mM using DMSO as diluents. All stock solutions were then diluted to working concentrations at 0.25 mM with 70% acetonitrile. The cofactor used in this study was NADPH regenerating system, that was composed of 6.5 mM NADP, 16.5 mM G-6-P, 3 U/mL G-6-P D. The quench reagent was consisted of acetonitrile containing tolbutamide and propanolol (serve as internal standard). Incubation mixtures containing 0.5 mg/mL liver microsomal protein and […] test article/positive control in 100 mM potassium phosphate buffer.
The 0-minute samples were prepared by addition of an 80 μL aliquot of each incubation mixture to 300 μL quench reagent to precipitate proteins. The samples were vortexed, and then a 20 μL aliquot of the NADPH regenerating system was added in. The reaction was initiated by addition of 80 μL of the NADPH regenerating system to 320 μL of each incubation mixture. The final incubation conditions achieved in 400 μL are: 0.5 mg/mL microsomal protein, 1 μM test article/positive control, 1.3 mM NADP, 3.3 mM glucose 6 phosphate, 0.6 U/mL glucose 6 phosphate dehydrogenase. The mixtures were incubated in a 37° C. water bath with gentle shaking. A 100 μL aliquot of each mixture was removed at 10, 30, 90 minutes to a clean 96-well plate which contains 300 μL quench reagent to precipitate proteins, and centrifuged (4000×g, 10 min). 80 μL of supernatant are taken into 96-well assay plates pre-added with 160 μL ultrapure water, and then analyzed by LC-MS/MS. Hepatic extraction ratio (Eh) values were calculated from measured in vitro clearance assuming a human liver blood flow of 20.7 mL/min/kg. Eh values of <0.3 are indicative of compounds with favorable metabolic stability.

Data set [3] addresses T1, NLRP3 inflammasome (Homo sapiens, UniProt Q96P20). Briefly: NLRP3 inflammasome activation assay in Kupffer cells (LPS priming, nigericin), IL-1β/IL-18 by ELISA. The class given is cell-based. The settings on record: KCs; LPS, nigericin; read-out: KC IL-1β IC50. The source says:
(§1) Some of the following assays were used to determine the inhibitory activity of the compounds on the NLRP3 inflammasome using a common inflammasome activation stimuli-nigericin.
Human Kupffer cells (KCs), specialized liver macrophages residing in […], were obtained by gradient isolation from liver specimens harvested post-mortem by Samsara Sciences. Cells were obtained through an IRB approved donor program by Samsara Sciences and all donors tested negative for bacterial and viral infections.
(§2) Cells were then stimulated with 10 uM Nigericin (Sigma Aldrich; InvivoGen) for 1.5 h. Plates were centrifuged at 1,500 rpm for 3 minutes to pellet cells and supernatant was transferred into new plates for subsequent experiments.
(§3) For ELISA assays cells were seeded into 96-well plates. Post study, supernatants were removed and the levels of mature IL-1β, IL-18 and TNFα (Quantikine ELISA, R&D systems) were measured in cell conditioned media by ELISA according to manufacturer's instructions.
On the technique in general: In an ELISA, binding on a coated surface is turned into a signal by an enzyme label.

Data set [4] deals with T1, NLRP3 inflammasome. Briefly: NLRP3 inflammasome activation assay in PBMCs (LPS priming, nigericin), IL-1β by ELISA. On the set-up: Human peripheral blood mononuclear cells (PBMCs); host or cells: primary human PBMCs from healthy donors. The class given is cell-based. To be noted: LPS, nigericin, read-out: PBMC IL-1β IC50. How it is done: as §1
Human peripheral blood mononuclear cells (PBMCs), consisting of lymphocytes (T, B and NK cells), monocytes and dendritic cells, were freshly isolated from human peripheral blood from healthy donors. Cells were obtained through an IRB approved donor program by iXCells Biotechnologies where all the donors were tested for bacterial and viral infections. Cells were purified from peripheral blood using ficoll gradient centrifugation.
as §2, §3

[5] abbreviates: LPS and nigericin stimulated cells, CellTiter-Glo.

T1 sequence (Q96P20 whole entry): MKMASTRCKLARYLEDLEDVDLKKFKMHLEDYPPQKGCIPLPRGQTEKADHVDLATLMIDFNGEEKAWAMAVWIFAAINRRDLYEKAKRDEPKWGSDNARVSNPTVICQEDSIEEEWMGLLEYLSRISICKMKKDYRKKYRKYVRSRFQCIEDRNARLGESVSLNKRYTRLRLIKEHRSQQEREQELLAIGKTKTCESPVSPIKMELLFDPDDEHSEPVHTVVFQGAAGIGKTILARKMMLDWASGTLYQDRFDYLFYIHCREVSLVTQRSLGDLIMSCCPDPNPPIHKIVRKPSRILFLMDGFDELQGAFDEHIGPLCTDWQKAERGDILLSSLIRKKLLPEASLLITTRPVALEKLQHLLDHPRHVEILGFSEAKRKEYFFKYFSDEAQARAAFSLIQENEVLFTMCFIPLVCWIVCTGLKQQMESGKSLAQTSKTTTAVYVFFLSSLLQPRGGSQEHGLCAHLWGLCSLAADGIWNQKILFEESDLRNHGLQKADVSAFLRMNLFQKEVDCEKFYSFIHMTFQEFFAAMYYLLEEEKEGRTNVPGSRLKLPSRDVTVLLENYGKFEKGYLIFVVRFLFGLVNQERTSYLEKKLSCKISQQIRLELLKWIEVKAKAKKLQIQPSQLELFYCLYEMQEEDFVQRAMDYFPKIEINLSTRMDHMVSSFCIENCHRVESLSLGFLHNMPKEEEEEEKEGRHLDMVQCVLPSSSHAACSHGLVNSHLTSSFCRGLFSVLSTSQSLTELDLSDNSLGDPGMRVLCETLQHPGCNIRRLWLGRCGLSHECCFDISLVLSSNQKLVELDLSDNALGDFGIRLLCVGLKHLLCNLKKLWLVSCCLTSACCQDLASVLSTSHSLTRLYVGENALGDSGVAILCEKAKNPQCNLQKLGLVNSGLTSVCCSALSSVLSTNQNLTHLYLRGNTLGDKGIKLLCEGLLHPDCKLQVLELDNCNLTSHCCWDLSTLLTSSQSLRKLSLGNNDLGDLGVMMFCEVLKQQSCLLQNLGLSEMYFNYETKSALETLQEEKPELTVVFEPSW

As to `CN(C)C1COc2c(S(=O)(=O)NC(=O)Nc3c4c(cc5c3CCC5)CCC4)cnn2C1` (stereo not drawn), the 50% inhibitory concentration (IC50) (in general, the point on the concentration scale where inhibition reaches its midpoint) in data set [1] was below 100 nM. For the same compound, in data set [2], the “Human Microsomal Stability (Eh)” value came to 0.2.
Regarding `CC1COc2c(S(=O)(=O)NC(=O)Nc3c4c(cc5c3CCC5)CCC4)cnn2C1` (stereo not drawn), the IC50 (in data set [1] (setting [5]); at NLRP3 inflammasome [3]; at NLRP3 inflammasome [4]) was below 100 nM in each case. Moreover, in data set [2], the “Human Microsomal Stability (Eh)” value is 0.4.
`O=C(Nc1c2c(cc3c1CCC3)CCC2)NS(=O)(=O)c1cnn2c1NCCC2`: the IC50 (in data set [1] (setting [5]); on NLRP3 inflammasome [3]; at NLRP3 inflammasome [4]) was below 100 nM throughout. Also, the “Human Microsomal Stability (Eh)” value in data set [2] amounted to 0.2.
Turning to `O=C(Nc1c2c(cc3c1CCC3)CCC2)NS(=O)(=O)c1cc2n(n1)CCNC2`, the results for the IC50 (in data set [1] (setting [5]); on NLRP3 inflammasome [4]) were below 100 nM and 100 to 1000 nM, respectively.
Turning to `COCC1COc2c(S(=O)(=O)NC(=O)Nc3c4c(cc5c3CCC5)CCC4)cnn2C1` (stereo not drawn), the IC50 was below 100 nM in data set [1] (setting [5]) and 100 to 1000 nM at NLRP3 inflammasome [4].
The like results for `CN1CCn2nc(S(=O)(=O)NC(=O)Nc3c4c(cc5c3CCC5)CCC4)cc2C1` were, in that order, 100 to 1000 nM and 1000 to 10000 nM.
Taken in the same sequence, the figures for `O=C(Nc1c2c(cc3c1CCC3)CCC2)NS(=O)(=O)c1ncn2c1OCCC2` were 100 to 1000 nM and 100 to 1000 nM.
In the case of `O=C(Nc1c2c(cc3c1CCC3)CCC2)NS(=O)(=O)c1cnn2c1OCC(N1CCCC1)C2` (stereo not drawn), the half-maximal inhibitory concentration (IC50) (in data set [1] (setting [5]); at NLRP3 inflammasome [4]) was below 100 nM in each case. Moreover, the “Human Microsomal Stability (Eh)” value in data set [2] is 0.6.
For the compound `CCN[C@H]1COc2c(S(=O)(=O)NC(=O)Nc3c4c(cc5c3CCC5)CCC4)cnn2C1`, the IC50 (in data set [1] (setting [5]); on NLRP3 inflammasome [4]) was below 100 nM throughout. Further, in data set [2], the “Human Microsomal Stability (Eh)” value came to 0.2.
Regarding `CCO[C@@H]1COc2c(S(=O)(=O)NC(=O)Nc3c4c(cc5c3CCC5)CCC4)cnn2C1`, the IC50 (in data set [1] (setting [5]); on NLRP3 inflammasome [4]) was 100 to 1000 nM each time.
For `CC(C)(C)OC(=O)NCC1COc2c(S(=O)(=O)NC(=O)Nc3c4c(cc5c3CCC5)CCC4)cnn2C1` (stereo not drawn), the IC50 (in data set [1] (setting [5]); at NLRP3 inflammasome [4]) was below 100 nM in each case.
`O=C(Nc1c2c(cc3c1CCC3)CCC2)NS(=O)(=O)c1cnn2c1OCC(N1CCC1)C2` (stereo not drawn): the IC50 (in data set [1] (setting [5]); on NLRP3 inflammasome [4]) was below 100 nM each time.
